Measured values published in ChEMBL document CHEMBL2424622, “Development of amino-pyrimidine inhibitors of c-Jun N-terminal kinase (JNK): kinase profiling guided optimization of a 1,2,3-benzotriazole lead” (Bioorg Med Chem Lett, 2013).

Experiments:
[1] = target: Serine/threonine-protein kinase pim-1 (Homo sapiens) (UniProt P11309); assay: Competitive binding affinity to PIM1 (unknown origin) at 10 uM in presence of ATP relative to control
[2] = target: Serine/threonine-protein kinase SIK1 (Homo sapiens) (UniProt P57059); assay: Competitive binding affinity to SNF1LK (unknown origin) at 10 uM in presence of ATP relative to control
[3] = target: Protein kinase C delta type (Homo sapiens) (UniProt Q05655); assay: Competitive binding affinity to PRKCD (unknown origin) at 10 uM in presence of ATP relative to control
[4] = target: Ribosomal protein S6 kinase alpha-6 (Homo sapiens) (UniProt Q9UK32); assay: Competitive binding affinity to RPS6KA6 kinase domain 2 (unknown origin) at 10 uM in presence of ATP relative to control
[5] = target: Myosin light chain kinase, smooth muscle (Homo sapiens) (UniProt Q15746); assay: Competitive binding affinity to MYLK (unknown origin) at 10 uM in presence of ATP relative to control
[6] = target: T1, NUAK family SNF1-like kinase 2 (Homo sapiens) (UniProt Q9H093); assay: Competitive binding affinity to SNARK (unknown origin) at 10 uM in presence of ATP relative to control
T1 sequence (whole entry): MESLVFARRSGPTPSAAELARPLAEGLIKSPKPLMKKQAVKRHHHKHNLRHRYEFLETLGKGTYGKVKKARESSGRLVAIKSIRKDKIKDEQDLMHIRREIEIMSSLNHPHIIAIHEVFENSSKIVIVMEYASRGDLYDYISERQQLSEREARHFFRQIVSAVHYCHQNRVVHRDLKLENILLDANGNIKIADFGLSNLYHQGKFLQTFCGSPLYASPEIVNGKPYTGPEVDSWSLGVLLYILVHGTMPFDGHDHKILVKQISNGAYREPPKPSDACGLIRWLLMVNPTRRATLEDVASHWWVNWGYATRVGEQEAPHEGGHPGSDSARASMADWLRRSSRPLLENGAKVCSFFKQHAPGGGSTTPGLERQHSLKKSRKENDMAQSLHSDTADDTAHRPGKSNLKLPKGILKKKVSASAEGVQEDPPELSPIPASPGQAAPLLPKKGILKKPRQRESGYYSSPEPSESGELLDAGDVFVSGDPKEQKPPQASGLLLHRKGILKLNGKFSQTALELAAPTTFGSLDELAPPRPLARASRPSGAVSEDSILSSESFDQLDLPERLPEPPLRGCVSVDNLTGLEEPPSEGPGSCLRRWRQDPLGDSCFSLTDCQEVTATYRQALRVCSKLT

[7] = target: Serine/threonine-protein kinase MRCK beta (Homo sapiens) (UniProt Q9Y5S2); assay: Competitive binding affinity to MRCKB (unknown origin) at 10 uM in presence of ATP relative to control
[8] = target: T2, Serine/threonine-protein kinase TNNI3K (Homo sapiens) (UniProt Q59H18); assay: Competitive binding affinity to […] (unknown origin) at 10 uM in presence of ATP relative to control
T2 sequence (whole entry): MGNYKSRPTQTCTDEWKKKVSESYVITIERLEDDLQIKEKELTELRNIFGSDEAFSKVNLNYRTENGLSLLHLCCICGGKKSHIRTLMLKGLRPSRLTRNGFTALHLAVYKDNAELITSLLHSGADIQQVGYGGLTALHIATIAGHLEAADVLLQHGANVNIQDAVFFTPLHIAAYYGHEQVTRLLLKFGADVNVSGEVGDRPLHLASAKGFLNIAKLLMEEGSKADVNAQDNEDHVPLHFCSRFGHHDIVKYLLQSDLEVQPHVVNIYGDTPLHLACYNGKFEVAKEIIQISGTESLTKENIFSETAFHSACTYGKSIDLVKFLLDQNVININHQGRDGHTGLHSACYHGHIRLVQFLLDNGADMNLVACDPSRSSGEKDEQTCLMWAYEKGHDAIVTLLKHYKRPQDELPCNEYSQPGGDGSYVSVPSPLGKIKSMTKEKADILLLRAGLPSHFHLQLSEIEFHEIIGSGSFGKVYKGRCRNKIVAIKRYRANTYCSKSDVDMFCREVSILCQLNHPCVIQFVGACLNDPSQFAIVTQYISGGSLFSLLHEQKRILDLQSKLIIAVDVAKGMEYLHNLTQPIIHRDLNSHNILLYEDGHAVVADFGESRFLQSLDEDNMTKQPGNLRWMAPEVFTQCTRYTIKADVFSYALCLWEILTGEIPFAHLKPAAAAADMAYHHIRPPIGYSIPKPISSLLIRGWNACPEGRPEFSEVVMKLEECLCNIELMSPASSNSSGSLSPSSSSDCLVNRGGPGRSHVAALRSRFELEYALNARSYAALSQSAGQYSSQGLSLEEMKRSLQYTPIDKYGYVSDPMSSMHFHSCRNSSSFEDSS

| inhibition [1] [%] | inhibition [2] [%] | inhibition [3] [%] | inhibition [4] [%] | inhibition [5] [%] | inhibition [6] [%] | inhibition [7] [%] | inhibition [8] [%] | SMILES |
| --- | --- | --- | --- | --- | --- | --- | --- | --- |
| 96 | < 50 | < 50 | 100 | 74 | 78 | < 50 | < 50 | O[C@H]1CC[C@H](Nc2nccc(-n3ncc4ccccc43)n2)CC1 |
| 87 | < 50 | < 50 | 100 | 94 | 94 | < 50 | < 50 | O[C@H]1CC[C@H](Nc2nccc(-n3nnc4ccccc43)n2)CC1 |

Continued, molecule first:

| SMILES | inhibition [1] [%] | inhibition [2] [%] | inhibition [3] [%] | inhibition [4] [%] | inhibition [5] [%] | inhibition [6] [%] | inhibition [7] [%] | inhibition [8] [%] |
| --- | --- | --- | --- | --- | --- | --- | --- | --- |
| O[C@H]1CC[C@H](Nc2nccc(-n3ccc4ccccc43)n2)CC1 | 76 | < 50 | < 50 | 84 | < 50 | < 50 | < 50 | < 50 |
| CS(=O)(=O)CCCOc1cccc2c1ccn2-c1ccnc(N[C@H]2CC[C@H](C(=O)N3CCC(O)CC3)CC2)n1 | – | – | – | – | – | > 85 | – | – |
| O[C@H]1CC[C@H](Nc2nccc(-c3n[nH]c4ccccc34)n2)CC1 | 99 | – | – | – | – | – | – | < 50 |
